Source: patent publication US20260000782A1, “ITGB2-MEDIATED DRUG DELIVERY SYSTEM” (TWINPIG BIOLAB INC., priority 2022, published 2026)

Key:
M2 macrophages [1] = assay: Flow cytometry of FITC-conjugated melittin on M0, M1 and M2 macrophages; type: cell-based, human; conditions: 50 nM FITC-conjugated melittin, 1 hour; THP-1 derived M0, M1, M2 macrophages
Protocol: To confirm whether the melittin fabricated in Example 1 specifically bound to M2 tumor-associated macrophages (M2 TAMs), a human monocyte cell line THP-1 was differentiated into M0, M1, and M2 macrophages, and treated with FITC-conjugated melittin, and then confirmed by flow cytometry. Specifically, THP-1 cells were treated with 100 nM phorbol 12-myristate 13-acetate (PMA) at 37° C. for 24 hours (M0 macrophages), and the differentiated M0 macrophages were incubated with 100 nM LPS and 20 ng/ml IFN-γ at 37° C. for 72 hours to be differentiated into M1 macrophages (M1), and incubated with 20 ng/ml IL-4 and IL-13 at 37° C. for 72 hours to be differentiated into M2 macrophages (M2). The differentiated cells were treated with 50 nM FITC-conjugated melittin for 1 hour, detected with BD FACS CantoII instruments (BD biosciences, San Jose, CA, USA), and analyzed with FlowJo software (BD biosciences).

M2 macrophages [2] = assay: CCK-8 cell viability in M2 macrophages (control, ITGB2 knockdown, ITGB2 antibody pretreatment); type: cell-based, human; conditions: Melittin-dKLA 1 μM, 24 hours
Protocol: As a cell model used to confirm whether apoptosis was induced through ITGB2 in M2 macrophages, a cell model in which the expression of ITGB2 was suppressed in M2 macrophages was fabricated using Crispr/cas9. Specifically, cells differentiated into M2 macrophages were cultured in an Opti-MEM medium. The Crispr/cas9 was mixed with Cas9 protein V2 (Thermo Fisher scientific) and gRNA (Genscript; ITGB2; Table 7) of a CRISPRMAX™ Reagent kit (Thermo Fisher scientific) and a Cas9 Plus™ Reagent (Thermo Fisher scientific), and a CRISPRMAX™ Reagent was diluted in the Opti-MEM medium, mixed together, and reacted for 5 to 10 minutes, and then added to cells differentiated into M2 macrophages and cultured at 37° C. for 2 to 3 days. Thereafter, the mRNA expression level of ITGB2 was confirmed.
To confirm whether Melittin-dKLA bound to ITGB2 to induce apoptosis in M2 macrophages, Melittin-dKLA (1 μM) was treated for 24 hours to M2 macrophages in which ITGB2 expression was suppressed by Crispr/cas9 fabricated in Example 7-1 above, and cell viability was analyzed using a CCK-8 assay. Specifically, Melittin-dKLA (1 μM) reacted with ITGB2 knockdown macrophages fabricated in Example 7-1 above for 1 hour. After the reaction, the medium was replaced and cultured at 37° C. for 24 hours. […] Absorbance was measured at 450 nm using a microplate reader (Molecular Devices). […]

CC[C@H](C)[C@H](NC(=O)CN)C(=O)NCC(=O)N[C@@H](C)C(=O)N[C@H](C(=O)N[C@@H](CC(C)C)C(=O)N[C@@H](CCCCN)C(=O)N[C@H](C(=O)N[C@@H](CC(C)C)C(=O)N[C@H](C(=O)N[C@H](C(=O)NCC(=O)N[C@@H](CC(C)C)C(=O)N1CCC[C@H]1C(=O)N[C@@H](C)C(=O)N[C@@H](CC(C)C)C(=O)N[C@H](C(=O)N[C@@H](CO)C(=O)N[C@@H](Cc1c[nH]c2ccccc12)C(=O)N[C@H](C(=O)N[C@@H](CCCCN)C(=O)N[C@@H](CCCNC(=N)N)C(=O)N[C@@H](CCCCN)C(=O)N[C@@H](CCCNC(=N)N)C(=O)N[C@@H](CCC(N)=O)C(=O)N[C@@H](CCC(N)=O)C(N)=O)[C@@H](C)CC)[C@@H](C)CC)[C@@H](C)O)[C@@H](C)O)C(C)C)C(C)C [melittin, Melittin]
FITC-positive cells (M2 macrophages [1]): significantly increased in M2 macrophages

Peptide with linker and drug dKLA attached to melittin, SEQ ID NO: 5, GIGAVLKVLTTGLPALISWIKRKRQQ-GGGGS-d[KLAKLAKKLAKLAK] [Melittin-dKLA]
cell viability (M2 macrophages [2]; M2 macrophages in which ITGB2 was knocked down (Crispr/cas9)): decrease in cell viability by Melittin-dKLA was suppressed
cell viability (M2 macrophages [2]; control M2 macrophages): significantly reduced
